Results published in ChEMBL document CHEMBL5108067, “Discovery of Potent OTUB1/USP8 Dual Inhibitors Targeting Proteostasis in Non-Small-Cell Lung Cancer” (J Med Chem, 2022).

What was measured:
[1] = molecular target: T1, Ubiquitin thioesterase OTUB1 (Homo sapiens, UniProt Q96FW1); assay: Destabilization of N-terminal His-6 tagged OTUB1 (40 to 271 residues) (unknown origin) expressed in Escherichia coli BL21 (DE3) cells assessed as reduction in melting temperature at 200 uM measured for 2 hrs in presence of dithiothreitol by SYPRO orange dye based thermal shift assay
T1 sequence (Q96FW1 whole entry, the tested form may be a part): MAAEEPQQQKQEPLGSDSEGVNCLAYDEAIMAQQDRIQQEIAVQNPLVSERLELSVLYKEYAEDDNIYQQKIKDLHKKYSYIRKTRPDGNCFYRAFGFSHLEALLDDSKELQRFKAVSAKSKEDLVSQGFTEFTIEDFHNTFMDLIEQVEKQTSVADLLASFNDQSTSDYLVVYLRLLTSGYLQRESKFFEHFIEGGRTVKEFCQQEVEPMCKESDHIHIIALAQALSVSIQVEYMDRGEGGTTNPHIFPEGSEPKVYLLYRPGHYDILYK

[2] = molecular target: T1, Ubiquitin thioesterase OTUB1; assay: Inhibition of N-terminal His-6 tagged OTUB1 (40 to 271 residues) (unknown origin) expressed in Escherichia coli BL21 (DE3) cells at 10 nM using Ub-Rho measured after 0.5 to 3 hrs by fluorescence based Plate reader method relative to control; details: time 0.5-3 hrs, values are per cent of control
[3] = molecular target: T1, Ubiquitin thioesterase OTUB1; assay: Inhibition of N-terminal His-6 tagged OTUB1 (40 to 271 residues) (unknown origin) expressed in Escherichia coli BL21 (DE3) cells at 100 nM using Ub-Rho measured after 0.5 to 3 hrs by fluorescence based Plate reader method relative to control; details: time 0.5-3 hrs, values are per cent of control
[4] = molecular target: T2, Ubiquitin carboxyl-terminal hydrolase 8 (Homo sapiens, UniProt P40818); assay: Inhibition of N-terminal His-6 tagged USP8 (734 to 1110 residues) (unknown origin) expressed in Escherichia coli BL21 (DE3) cells measured after 3 hrs by fluorescence based Plate reader method
T2 sequence (P40818 whole entry): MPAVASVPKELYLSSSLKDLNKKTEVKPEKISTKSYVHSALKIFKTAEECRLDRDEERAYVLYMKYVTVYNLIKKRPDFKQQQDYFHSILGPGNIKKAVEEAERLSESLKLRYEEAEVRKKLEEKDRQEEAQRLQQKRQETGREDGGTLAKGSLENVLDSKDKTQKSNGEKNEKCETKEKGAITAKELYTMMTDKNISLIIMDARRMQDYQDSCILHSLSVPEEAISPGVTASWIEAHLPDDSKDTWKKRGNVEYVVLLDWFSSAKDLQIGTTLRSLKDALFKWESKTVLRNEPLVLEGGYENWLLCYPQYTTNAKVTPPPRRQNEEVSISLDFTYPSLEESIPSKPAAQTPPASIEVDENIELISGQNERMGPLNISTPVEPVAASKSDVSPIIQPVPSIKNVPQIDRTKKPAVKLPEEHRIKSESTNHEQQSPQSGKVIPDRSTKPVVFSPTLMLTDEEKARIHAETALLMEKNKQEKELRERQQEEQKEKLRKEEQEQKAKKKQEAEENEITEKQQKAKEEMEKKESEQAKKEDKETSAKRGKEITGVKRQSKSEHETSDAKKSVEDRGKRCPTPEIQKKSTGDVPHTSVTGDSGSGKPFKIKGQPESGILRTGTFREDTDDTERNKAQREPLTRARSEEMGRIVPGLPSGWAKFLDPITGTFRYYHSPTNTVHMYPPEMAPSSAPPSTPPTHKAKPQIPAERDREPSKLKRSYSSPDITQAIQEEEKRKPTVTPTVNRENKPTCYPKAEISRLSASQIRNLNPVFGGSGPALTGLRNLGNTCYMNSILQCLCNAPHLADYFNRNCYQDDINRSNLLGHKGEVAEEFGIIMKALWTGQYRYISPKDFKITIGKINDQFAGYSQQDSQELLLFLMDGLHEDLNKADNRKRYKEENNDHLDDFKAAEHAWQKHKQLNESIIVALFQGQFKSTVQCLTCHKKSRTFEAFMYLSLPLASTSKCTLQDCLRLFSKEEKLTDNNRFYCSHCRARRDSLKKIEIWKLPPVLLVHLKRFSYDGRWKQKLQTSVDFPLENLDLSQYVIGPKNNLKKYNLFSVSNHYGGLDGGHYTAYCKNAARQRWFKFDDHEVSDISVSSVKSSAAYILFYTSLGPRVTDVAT

[5] = molecular target: Ubiquitin carboxyl-terminal hydrolase 7 (Homo sapiens, UniProt Q93009); assay: Inhibition of USP7 (unknown origin) using Ub-Rho measured after 0.5 to 3 hrs
Ubiquitin carboxyl-terminal hydrolase 7, sequence (Q93009 whole entry): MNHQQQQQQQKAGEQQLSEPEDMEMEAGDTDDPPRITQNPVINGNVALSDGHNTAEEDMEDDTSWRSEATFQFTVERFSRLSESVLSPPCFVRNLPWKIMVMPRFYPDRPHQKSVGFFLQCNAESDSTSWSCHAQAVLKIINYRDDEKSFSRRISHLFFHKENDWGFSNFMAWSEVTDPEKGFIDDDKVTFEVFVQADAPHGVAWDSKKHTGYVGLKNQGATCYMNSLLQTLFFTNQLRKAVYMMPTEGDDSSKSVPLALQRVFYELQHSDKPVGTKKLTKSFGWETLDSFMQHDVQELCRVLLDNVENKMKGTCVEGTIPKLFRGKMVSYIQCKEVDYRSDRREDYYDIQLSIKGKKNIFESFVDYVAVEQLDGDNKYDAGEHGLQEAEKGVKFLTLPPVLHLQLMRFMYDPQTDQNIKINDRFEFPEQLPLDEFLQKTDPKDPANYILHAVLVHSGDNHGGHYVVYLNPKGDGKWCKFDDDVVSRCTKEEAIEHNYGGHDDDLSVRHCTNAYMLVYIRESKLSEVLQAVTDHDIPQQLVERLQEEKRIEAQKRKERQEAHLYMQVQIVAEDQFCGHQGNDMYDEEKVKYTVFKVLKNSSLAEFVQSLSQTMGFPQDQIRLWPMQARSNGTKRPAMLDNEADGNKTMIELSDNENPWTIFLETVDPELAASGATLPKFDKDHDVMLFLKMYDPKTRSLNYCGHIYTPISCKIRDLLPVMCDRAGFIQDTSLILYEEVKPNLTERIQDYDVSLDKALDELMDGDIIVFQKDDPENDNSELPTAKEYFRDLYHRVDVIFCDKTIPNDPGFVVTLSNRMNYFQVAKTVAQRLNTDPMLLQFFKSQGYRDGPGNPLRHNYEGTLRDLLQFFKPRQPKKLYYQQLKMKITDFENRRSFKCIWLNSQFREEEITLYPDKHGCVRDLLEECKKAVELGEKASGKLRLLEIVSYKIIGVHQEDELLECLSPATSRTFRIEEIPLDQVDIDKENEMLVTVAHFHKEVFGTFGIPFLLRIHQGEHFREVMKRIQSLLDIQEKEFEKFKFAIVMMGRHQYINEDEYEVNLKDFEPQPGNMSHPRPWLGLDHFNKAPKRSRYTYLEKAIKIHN

[6] = molecular target: T3, Ubiquitin carboxyl-terminal hydrolase 36 (Homo sapiens, UniProt Q9P275); assay: Inhibition of USP36 (unknown origin) using Ub-Rho measured after 0.5 to 3 hrs
T3 sequence (Q9P275 whole entry): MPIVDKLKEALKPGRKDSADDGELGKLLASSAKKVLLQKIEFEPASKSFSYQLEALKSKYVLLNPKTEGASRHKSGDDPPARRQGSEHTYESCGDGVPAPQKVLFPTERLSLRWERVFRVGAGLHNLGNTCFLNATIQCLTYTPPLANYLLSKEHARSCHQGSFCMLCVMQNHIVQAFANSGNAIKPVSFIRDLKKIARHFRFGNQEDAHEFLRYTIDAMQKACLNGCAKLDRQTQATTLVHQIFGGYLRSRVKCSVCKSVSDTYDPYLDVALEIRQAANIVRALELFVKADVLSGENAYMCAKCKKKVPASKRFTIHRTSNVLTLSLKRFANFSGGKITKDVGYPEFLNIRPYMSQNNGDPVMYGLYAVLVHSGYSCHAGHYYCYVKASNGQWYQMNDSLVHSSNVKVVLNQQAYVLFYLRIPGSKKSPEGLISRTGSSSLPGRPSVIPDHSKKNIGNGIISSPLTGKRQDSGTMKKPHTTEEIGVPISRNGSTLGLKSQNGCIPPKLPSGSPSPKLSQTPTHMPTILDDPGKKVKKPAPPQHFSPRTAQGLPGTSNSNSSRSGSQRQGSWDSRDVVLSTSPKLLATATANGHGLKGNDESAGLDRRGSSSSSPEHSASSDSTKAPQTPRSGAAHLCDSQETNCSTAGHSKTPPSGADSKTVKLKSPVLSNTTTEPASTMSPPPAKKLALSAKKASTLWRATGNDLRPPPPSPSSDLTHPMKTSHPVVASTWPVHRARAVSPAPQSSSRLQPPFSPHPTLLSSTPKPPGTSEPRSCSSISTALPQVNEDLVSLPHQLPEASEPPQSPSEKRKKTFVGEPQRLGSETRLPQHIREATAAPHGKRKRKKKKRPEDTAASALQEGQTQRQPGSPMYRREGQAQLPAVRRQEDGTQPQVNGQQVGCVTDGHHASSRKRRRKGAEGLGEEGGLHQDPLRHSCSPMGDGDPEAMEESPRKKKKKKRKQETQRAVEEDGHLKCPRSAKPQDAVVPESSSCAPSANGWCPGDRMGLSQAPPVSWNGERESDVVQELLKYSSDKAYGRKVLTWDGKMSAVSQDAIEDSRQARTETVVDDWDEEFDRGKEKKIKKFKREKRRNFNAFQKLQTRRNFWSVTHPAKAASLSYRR

Ataxin-3 = Ataxin-3 (Homo sapiens, UniProt P54252); assay: Inhibition of Ataxin-3 (unknown origin) using Ub-Rho measured after 0.5 to 3 hrs
Ataxin-3, sequence (P54252 whole entry): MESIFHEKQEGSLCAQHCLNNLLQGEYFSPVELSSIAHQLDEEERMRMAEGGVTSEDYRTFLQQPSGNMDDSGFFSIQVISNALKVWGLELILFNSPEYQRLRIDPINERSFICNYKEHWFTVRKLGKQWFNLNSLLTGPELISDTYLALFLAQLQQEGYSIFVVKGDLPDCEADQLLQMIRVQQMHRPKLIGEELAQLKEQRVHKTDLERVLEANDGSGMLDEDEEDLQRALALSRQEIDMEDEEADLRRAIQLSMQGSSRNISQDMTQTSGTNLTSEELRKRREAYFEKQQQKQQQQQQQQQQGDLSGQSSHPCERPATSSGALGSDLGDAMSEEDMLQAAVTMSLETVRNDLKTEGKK

NCI-H1703 = assay: Antiproliferative activity against human NCI-H1703 cells harboring wild type KRAS incubated for 72 hrs by MTT assay; format: functional, cell-based; details: NCI-H1703, 72 h
A549 = assay: Antiproliferative activity against human A549 cells harboring KRAS mutant incubated for 72 hrs by MTT assay; format: functional, cell-based; details: A549, 72 h

Row | SMILES | ΔTm [1] | residual activity [2] | residual activity [3] | IC50 [4] | IC50 [5] | IC50 [6] | IC50 (Ataxin-3) | IC50 (NCI-H1703) | IC50 (A549)
1 | CN1CC[C@@H](Oc2ccc(F)c(-c3nc4c(o3)C(=O)c3ccccc3C4=O)c2Cl)C1 | 2.5 °C | 10.5% | 7.3% | 0.28 nM | > 10000 nM | 8400 nM | > 10000 nM | 145 nM | 1000 nM
2 | CN1CC[C@@H](Oc2ccc(Cl)c(-c3nc4c(o3)C(=O)c3ccccc3C4=O)c2)C1 | 1 °C | 28.9% | 13.7% | 1.27 nM | > 10000 nM | > 10000 nM | > 10000 nM | 113 nM | 701 nM
3 | O=C1c2ccccc2C(=O)c2oc(-c3cccnc3)nc21 | 1 °C | 42.4% | 18.2% | 2.7 nM | > 10000 nM | 3900 nM | > 10000 nM | 93 nM | 662 nM
4 | CN1CC[C@@H](Oc2ccc(Cl)c(-c3nc4c(o3)C(=O)c3ccccc3C4=O)c2F)C1 | 1 °C | 10.7% | 7.4% | 2 nM | > 10000 nM | 7200 nM | > 10000 nM | 173 nM | 1260 nM
